Experimental data as given in patent US12428666B2, “Compositions and methods related to kethoxal derivatives” (The University of Chicago, priority 2018, dated 2025).
Entries after “also recorded” stand apart in the source; their conditions may differ.

Columns and labels:
[1] = test system: RNA G-quadruplexes (rG4) in HeLa cell; test: Keth-seq of rG4 regions with or without PDS treatment; format: cell-based, human; details: HeLa cell mRNA, 105 regions
Description: The characterization of RNA G-quadruplexes (rG4) in vivo remains challenging. Because of its high specificity towards guanine, the rG4 structure is a good object of N3-kethoxal to probe. It has been reported that PDS treatment can induce the formation of rG4 inside cells based on immunofluorescence imaging. Keth-seq was tested for the ability to identify rG4 structures induced by PDS inside cells. Keth-seq libraries were prepared using mRNA isolated from HeLa cell with or without PDS treatment. Previously identified rG4 structure regions (n=13,423 from in vitro probing) were analyzed in the Keth-seq data, and detected hundreds of regions with potential secondary structure (FIG. 14d). […] As the regions that form rG4 in vivo are more […], their structures were compared in terms of GINI index. […] Two examples were included where the signal in the defined rG4 regions in the PDS sample is lower than that in the control sample (FIG. 7f).

[2] = test system: N3-kethoxal labelled RNA; test: Reversibility of N3-kethoxal labelled RNA with excess GTP (MALDI-TOF, dot blot); format: physicochemical; details: for time for almost complete removal of N3-kethoxal modification on labeled RNA: excessive GTP (50 mM)
Description: Removal N3-kethoxal modification from N3-kethoxal labelled RNA. The detailed protocol of N3-kethoxal modification erasing is described below “N3-kethoxal-remove sample preparation” in the keth-seq protocol. Generally, the purified N3-kethoxal modified RNA was incubated with high concentration of GTP (½ volume of the reaction solution, final concentration 50 mM) at 37° C. for 6 hours or at 95° C. for 10 mins. Higher temperature benefits the removal the N3-kethoxal modification.

[3] = test system: guanine; test: Reaction of N3-kethoxal with RNA nucleic bases and RNA oligos (HPLC, MALDI-TOF); format: biochemical
Description: The reaction of N3-kethoxal and RNA was generally performed with the following protocol: 100 pmol RNA oligo and 1 μmol N3-kethoxal was incubated in total 10 μL solution in PBS buffer at 37° C. for 10 mins. […] The purified labelled RNA can be used for further studies such as mass spectrometry, gel electrophoresis and copper-free click reaction with biotin-DBCO.
MALDI-TOF-MS analysis of N3-kethoxal labelled RNA oligo. […] Meanwhile the buffer exchange occurred from PBS buffer to tris buffer that can be directly used in MALDI-TOF-MS experiment without extra desalt step. One microliter of product solution was mixed with one microliter matrix which include 8:1 volume ratio of 2′4′6′-trihydroxyacetophenone (THAP, 10 mg/mL in 50% CH3CN/H2O):ammonium citrate (50 mg/mL in H2O). Then the mixture was spotted on the MALDI sample plate, dried and analyzed by Bruker Ultraflextreme MALDI-TOF-TOF Mass Spectrometers.
The product of N3-kethoxal with for RNA nucleic bases was analyzed using LC-6AD (Shimadzu, Japan) HPLC instrument, which equipped with an Inertsil ODS-SP column ([…], 250×4.6 mm) (GL Science Inc. Japan). The phase A (100 mM TEAA buffer, pH=7.0) and phase B (CH3CN) were used as eluents with a flow rate of 1 mL/min at 35° C. (B conc.: 5-5-30%/0-5-30 min).

[4] = test system: N3-kethoxal labelled RNA; test: Fixation of N3-kethoxal modification in RNA by borate buffer; format: physicochemical; details: final concentration 50 mM
Description: Fixation of N3-kethoxal modification in RNA. The labile N3-kethoxal modification in RNA can be fixed in the presence of borate buffer. The solution of N3-kethoxal labelled RNA was mixed with 1/10 volume of stock borate buffer (final concentration: 50 mM; stock borate buffer: 500 mM potassium borate, pH 7.0, pH was monitored while adding potassium hydroxide pellets to 500 mM boric acid). The borate buffer fixation was used in various steps of keth-seq protocol, see below.

[5] = test system: single-strand RNA (ssRNA); test: Selectivity of N3-kethoxal to ssRNA by denaturing gel electrophoresis; format: biochemical
Source text: The complementary RNA oligoes FS1 (5'-[…] NO:1, Fluorescent RNA oligo) and […]

[6] = test system: living mouse embryonic stem cells (mESCs); test: In vivo labeling of living mES cells, dot blot of isolated biotinylated RNA; format: cell-based
Description: In vivo study: 10 μL N3-kethoxal was added into the cell culture medium in 100 mm cell culture dish with nearly 80% confluent mES cells. After incubation at 37° C. in CO2 incubator for a specific time, the medium was aspirated and the cells were washed three times by PBS. The total RNA was isolated by Trizol™ reagent (Invitrogen, 15596026) or Qiagen RNeasy™ plus mini kit (Qiagen, 74134). mRNA was isolated by Dynabeads™ mRNA DIRECT™ Purification Kit (Invitrogen, 61011). The biotinylation step was same as in vitro study. The biotinylated RNA was purified by RNA clean & concentrator.
Dot blot assay: one microliter RNA (100 ng/uL) sample was spotted onto the Amersham Hybond-N+ membrane (RPN119B, GE Healthcare) and UV crosslinked to the membrane by UVP HL-2000 hybriLinker. The membrane was washed using 1×PBST (0.1% tween-20) and blocked with 5% nonfat dry milk in 1×PBST overnight at 4° C. After four times wash using 1×PBST with ten-minute interval, the streptavidin-horseradish peroxidase (1:15000 dilution, streptavidin-HRP, Life Technologies, S-911) in 1×PBST with 3% BSA was added and incubated at room temperature for 40 mins. Then then membrane was washed using 1×PBST with ten-minute interval again and developed by SuperSignal™ West Pico PLUS Chemiluminescent Substrate (Thermo Scientific, 34577). The membrane was washed by 1×PBST again and stained by methylene blue solution (0.02% methylene blue in 0.3 M sodium Acetate pH 5.2).

[7] = test system: RNA of mouse ES cells; test: Keth-seq RT stop distribution; format: cell-based
Description: A library was prepared following icSHAPE protocol with slight changes (Spitale et al., Nature 519:486-90, 2015). The detailed protocol is described below. For in vitro library preparation, RNA was isolated and refolded in RNA folding mix buffer firstly (100 mM HEPES, pH 8.0, 100 mM NaCl, 10 mM MgCl2). The refolded RNA was treated with N3-kethoxal and then utilized for library construction. For in vivo study, N3-kethoxal was added into the cultural medium of mES cell and the RNA was isolated to be utilized for library construction.
Sequencing data processing. As the library structure is similar to icSHAPE technique, a similar strategy was used to preprocess the sequencing reads. Pipeline from icSHAPE protocol was used to conduct the data analysis, all the scripts can be accessed at URL github.com/qczhang/icSHAPE. Firstly, script readCollapse.pl was used to collapse the reads with default parameter. […] Enriched reactivity for each transcript was calculated by comparing kethoxal sample (foreground) versus control sample (background) using script calcEnrich.pl (-w factor5:scaling1 -x 0.25). […]

[8] = 50 mM GTP, neutral buffer, 37° C., MALDI-TOF

| N3-kethoxal modification in mRNA after 10 mins incubation ([2]; 50 mM GTP, 95° C., dot blot) | kethoxal modification after 2 h incubation [2, 8] | kethoxal modification after 6 h incubation [2, 8] | time for almost complete removal of N3-kethoxal modification on labeled RNA ([2]; 37° C.) [h] | time for almost complete removal of N3-kethoxal modification on labeled RNA ([2]; 95° C.) [h] | stability of N3-kethoxal labeled RNA in borate buffer [4] | SMILES | GINI index of known rG4 regions vs control sample [1] | labelling of RNA oligo (MALDI-TOF molecular weight of product) ([3]; 12 mer RNA oligo with 4 guanines) | reaction with four RNA nucleic bases (HPLC) ([3]; G, A, C, U) | labeling activity compared with SHAPE reagent NAI ([3]; RNA oligo) | gel shift on double-stranded RNA after incubation ([5]; double-stranded RNA) | gel shift on single-stranded RNA after incubation ([5]; single-stranded RNA) | cell permeability ([6]; added directly to culture medium of living cells) | time to label DNA and RNA in living cells ([6]; living cells) [min] | dot blot signal saturation with incubation time ([6]; mESCs, 1, 5, 10, 15, 20 mins) | guanine share of RT-stopped sites among all reads ([7]; N3-kethoxal sample) [%] | G-stop sites with treatment time (keth-seq) ([7]; mES cell, 1 min vs 5 mins treatment) |
| --- | --- | --- | --- | --- | --- | --- | --- | --- | --- | --- | --- | --- | --- | --- | --- | --- | --- |
|  |  |  |  |  |  | NCCOc1cc(C(=O)Nc2cc(OCCN)c3ccccc3n2)nc(C(=O)Nc2cc(OCCN)c3ccccc3n2)c1 [PDS] | higher GINI index than the control sample |  |  |  |  |  |  |  |  |  |  |
| removed thoroughly | largely removed | almost removed | ≤ 6 | ≤ 0.167 | stabilized in borate buffer | CC(OCCN=[N+]=[N-])C(=O)C(O)O (centres unmarked) [N3-kethoxal, 3-(2-azidoethoxy)-1,1-dihydroxybutan-2-one] |  | all guanines (4 guanines) were modified | can only react with guanine (G) and was inert with A, C, and U | higher labeling activity | no such shift was detected | a shift was observed | highly cell-permeable; also recorded: could permeate the living cell efficiently even during one-minute incubation; also recorded: excellent cell permeability | ≤ 5 | saturated within five minutes | > 80 | G-stop sites were increased from 1 min to 5 mins |
